Experimental data: US20060063736A1, “Compositions and methods for inhibiting mucin-type O-linked glycosylation” (priority 2004, published 2006)
Where “and” joins values, the source holds several entries; their conditions need not be identical. Identical values can stand only once. No end group written: not given here.

Experiments:
mppGalNAcT-1 = molecular target: T1, mppGalNAcT-1 (Mus musculus, UniProt O08912); test: ELLA for ppGalNAcTs, mppGalNAcT-1; assay type: biochemical, murine; details: mppGalNAcT-1, ELLA validation
T1 construct: plasmids encoding truncated secreted ppGalNAcTs-1 to −5, -7, -10 and -11; made in house; host or cells: COS-7
T1 sequence (O08912 29-559 limits assumed): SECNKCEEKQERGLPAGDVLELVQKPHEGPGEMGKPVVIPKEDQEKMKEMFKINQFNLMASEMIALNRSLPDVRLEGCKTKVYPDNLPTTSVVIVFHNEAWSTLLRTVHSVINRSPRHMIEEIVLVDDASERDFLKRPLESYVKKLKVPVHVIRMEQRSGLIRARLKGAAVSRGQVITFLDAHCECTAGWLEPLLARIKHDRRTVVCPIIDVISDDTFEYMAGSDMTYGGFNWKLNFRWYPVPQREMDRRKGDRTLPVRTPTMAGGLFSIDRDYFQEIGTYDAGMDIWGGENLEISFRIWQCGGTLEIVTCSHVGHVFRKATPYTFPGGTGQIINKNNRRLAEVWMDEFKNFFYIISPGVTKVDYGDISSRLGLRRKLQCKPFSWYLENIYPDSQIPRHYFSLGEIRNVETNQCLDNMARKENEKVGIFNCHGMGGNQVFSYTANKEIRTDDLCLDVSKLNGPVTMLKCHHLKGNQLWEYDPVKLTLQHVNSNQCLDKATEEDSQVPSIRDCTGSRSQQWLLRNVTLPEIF
Description: COS-7 cells were transiently transfected with plasmids encoding truncated secreted ppGalNAcTs-1 to −5, -7, -10 and -11 as previously described. Hagen et al. (1997) J. Biol. Chem. 272:13843-13848. The crude conditioned medium was used as the enzyme source.
Standard reaction conditions for ppGalNAcT assays were as follows. The reaction mixture contained the following components in a final volume of 25 μL: 10 mM MnCl2, 40 mM sodium cacodylate, 40 mM β-mercaptoethanol, 0.1% Triton X-100, pH 6.5, 5 μL of conditioned media, and various concentrations of EA2 peptide 4, UDP-GalNAc and inhibitor. All uridine-based compounds were dissolved in dimethyl sulfoxide (DMSO). The concentration of DMSO in the reaction mixture was limited to 2% (v/v), as higher concentrations decreased ppGalNAcT activity. For inhibitor assays, reaction mixtures for positive controls also contained 2% DMSO. Unless otherwise stated, inhibitor assays were performed using 20 μM UDP-GalNAc and 50 μM EA2 peptide 4, the KM values for both substrates. Reactions were incubated at 37° C. and were terminated by the addition of 10 μL of 0.1 M EDTA. All experiments were performed in duplicate. Reaction rates were linear over the period monitored (20-30 min).
96-Well NeutrAvidin-coated plates were prewashed 3 times with 200 μL of wash buffer (25 mM Tris, 150 mM NaCl, 0.1% bovine serum albumin (BSA) (w/v), and 0.05% Tween (v/v), pH 7.2). Reactions were then transferred to the 96-well plates, incubated for 1 hour at room temperature (rt) and subsequently washed 3 times with 200 μL of phosphate-buffered saline (PBS) containing 0.5% BSA and 0.05% Tween, pH 7.1. A 100-μL solution of HPA-HRP in standard PBS buffer (1 μg/mL, pH 7.4) was added and the reaction was incubated for 1 h at rt. After 3 washes with 200 μL of PBS, bound HPA-HRP was quantified by the addition of 100 μL of TMB peroxide solution. The solutions were incubated for 5-15 min in the dark at rt. HRP activity was terminated by the addition of 50 μL of 2 N H2SO4 and the resulting solution was analyzed at 450 nm using a UV/Vis microtiter plate reader. The amount of product generated by the ppGalNAcT was extrapolated from absorbance values using an equation fit to the standard curve derived from Origin 6.1 software.
In order to screen the library in high-throughput format, a non-radioactive enzyme linked lectin assay (ELLA) for ppGalNAcTs was developed. As an acceptor substrate, the EA2 peptide (PTTDSTTPAPTTK; SEQ ID NO:12), a fragment of rat submandibular mucin, was chosen. Albone et al. (1994) J. Biol. Chem. 269:16845-16852. This peptide has been previously shown to be an efficient substrate for murine (m) ppGalNAcT-1 and is preferentially glycosylated at the fourth Thr residue from the N-terminus (underlined). Ten Hagen et al. (2001, supra). Biotinylation of EA2 allowed capture of (glyco)peptides onto 96-well NeutrAvidin-coated plates. The GalNAc-modified glycopeptide product could be detected using the α-GalNAc-specific lectin Helix pomatia agglutinin (HPA) (Hammarstrom et al. (1977) Biochemistry 16:2750-2755) conjugated to horseradish peroxidase (HRP). The bound HRP was quantified by addition of a chromogenic substrate.

Jurkat cells [1] = test: Con A staining of N-linked glycans on Jurkat cells, flow cytometry; assay type: cell-based, human; details: 2 d treatment
Description: (§1) Jurkat cells were seeded at 250,000 cells/well (determined by Coulter cell counter) in 12-well polystyrene tissue culture plates in 1.0 mL of media and treated with various concentrations of 1-68A or 2-68A from 50 mM dimethyl sulfoxide (DMSO) stock solutions or doxorubicin or campothecin from 1 mM DMSO stock solutions. After 2 d, cells were harvested, washed twice with PBS buffer (PBS, pH 7.4, 0.1% FCS, 0.1% NaN3 w/v) and stained with FITC-HPA (1 μg/mL) or FITC-Con A (5 μg/mL with 1 mM CaCl2) in PBS, pH 7.4 in the dark for 1 h at 4° C. Cells were washed twice with PBS buffer, resuspended in 300 μL of PBS buffer and analyzed by flow cytometry (FacsCaliber, BD Instruments). Annexin-V staining was performed according to the manufacturer's protocols (Invitrogen).
(§2) To directly monitor ppGalNAcT activities in cells, Jurkat cells (human T-cell lymphoma), which are known to produce only the Tn-antigen (FIG. 1) as their O-linked glycans, were chosen. Piller et al. (1990) J. Biol. Chem. 265:9264-9271. Changes in Tn-antigen expression on the surface of Jurkat cells were monitored by HPA binding followed by flow cytometry analysis. Con A staining of N-linked glycans was used as a control for non-specific inhibition of protein glycosylation. Baenziger and Fiete (1979) J. Biol. Chem. 254:2400-2407.

Jurkat cells [2] = test: HPA staining of Jurkat cells (Tn-antigen), flow cytometry; assay type: cell-based, human; details: Jurkat cells, 2 d treatment
Description: as §1, §2

Jurkat cells [3] = test: Annexin-V staining of Jurkat cells (apoptosis); assay type: cell-based, human; details: 2 d treatment
Description: as §1, §2

[4] = molecular target: C-terminal biotinylated EA2* glycopeptide 5 (…; SEQ ID NO:17) (rat); test: enzyme-linked lectin assay (ELLA): 15% glycopeptide 5 (9 pmol) on NeutrAvidin plates, detected with HPA-HRP
[5] = molecular target: T2, C-terminal biotinylated EA2 peptide 4 (PTTKDSTTPAPTTKK; SEQ ID NO:16)
T2 chain: PTTKDSTTPAPTTKK

O=c1ccn([C@@H]2O[C@H](COP(=O)(O)OP(=O)(O)O)[C@@H](O)[C@H]2O)c(=O)[nH]1 [UDP, reference compound]
Ki (mppGalNAcT-1; read-out: KI value for the product UDP): 251 µM and 250 µM

CC[C@@]1(O)C(=O)OCc2c1cc1n(c2=O)Cc2cc3ccccc3nc2-1 [campothecin, reference compound]
effect on Con A staining (Jurkat cells [1]): reduced
effect on HPA staining (Jurkat cells [2]): reduced
Annexin-V staining (induction of apoptosis) (Jurkat cells [3]): induced Annexin V binding at levels comparable to 1-68A

COc1cccc2c1C(=O)c1c(O)c3c(c(O)c1C2=O)C[C@@](O)(C(=O)CO)C[C@@H]3O[C@H]1C[C@H](N)[C@H](O)[C@H](C)O1 [doxorubicin, reference compound]
effect on Con A staining (Jurkat cells [1]): reduced
effect on HPA staining (Jurkat cells [2]): reduced
Annexin-V staining (induction of apoptosis) (Jurkat cells [3]): induced Annexin V binding at levels comparable to 1-68A

EA2 peptide 4: C-terminal biotinylated EA2 peptide (PTTKDSTTPAPTTKK; SEQ ID NO:16), fragment of rat submandibular mucin, acceptor substrate (PTTKDSTTPAPTTKK-biotin) [reference compound]
Km (mppGalNAcT-1): 48 ± 4 µM

Helix pomatia agglutinin (HPA) conjugated to horse radish peroxidase (HPA-HRP)
signal to noise ratio (fold above background) [4]: 30

uridine diphosphate N-acetyl-α-galactosamine [UDP-GalNAc, reference compound]
Km (mppGalNAcT-1): 13.9 µM and 14 µM

B1: murine polypeptide N-acetyl-α-galactosaminyltransferase-1 (mppGalNAcT-1) (protein)
chain: GLPAGDVLELVQKPHEGPGEMGKPVVIPKEDQEKMKEMFKINQFNLMASEMIALNRSLPDVRLEGCKTKVYPDNLPTTSVVIVFHNEAWSTLLRTVHSVINRSPRHMIEEIVLVDDASERDFLKRPLESYVKKLKVPVHVIRMEQRSGLIRARLKGAAVSRGQVITFLDAHCECTAGWLEPLLARIKHDRRTVVCPIIDVISDDTFEYMAGSDMTYGGFNWKLNFRWYPVPQREMDRRKGDRTLPVRTPTMAGGLFSIDRDYFQEIGTYDAGMDIWGGENLEISFRIWQCGGTLEIVTCSHVGHVFRKATPYTFPGGTGQIINKNNRRLAEVWMDEFKNFFYIISPGVTKVDYGDISSRLGLRRKLQCKPFSWYLENIYPDSQIPRHYFSLGEIRNVETNQCLDNMARKENEKVGIFNCHGMGGNQVFSYTANKEIRTDDLCLDVSKLNGPVTMLKCHHLKGNQLWEYDPVKLTLQHVNSNQCLDKATEEDSQVPSIRDCTGSRSQQWLLRNVTLPEIF
KM (ELLA enzyme kinetics) [5]: 48.0 ± 4.0 µM
